Earlier results, collected in patent publication EP2103943A1, “GDF-15 for assessing a cardiovascular risk with respect to the administration of antiinflammatory drugs” (F. Hoffmann-La Roche AG, priority 2008, dated 2009).

SMILES: CS(=O)(=O)c1ccc(C2=C(c3ccccc3)C(=O)OC2)cc1 [Rofecoxib]
- additional cardiovascular incidents (myocardial infarction, stroke) (25 mg rofecoxib compared with a placebo, after 18 months of follow-up): 16 per 1,000 treated patients
- blood pressure levels (25 mg rofecoxib compared with a placebo, early post-observation phase): higher blood pressure levels
- rise in the rate of serious thromboembolic incidents (APPROVE study, patients without any recognisable cardiovascular risk, led to premature discontinuation): 3.9 times
